Experimental data from US20220177538A1, “CO-AGONISTS AT GLP-1 AND GIP RECEPTORS SUITABLE FOR ORAL DELIVERY” (Novo Nordisk A/S, priority 2020, published 2022).
pEC50: −log10 of the molar value. Like-named read-outs stand apart in the source and are kept apart here. Starred links: 1 amine or outer side, 2 acyl side, 3 side chain; linkers in the order of their positions; H or OH if unused. Non-standard residues stand in square brackets, D forms with d. Residues, ends and D or L forms follow the SMILES beside them. Groups on a side chain read outwards from the residue. *: point of attachment. C18 diacid = O=C(O)CCCCCCCCCCCCCCCCC(=O)*; γGlu = O=C(O)[C@H](CCC(=O)[*:2])N[*:1]; εLys = N[C@@H](CCCCN[*:1])C(=O)[*:2]; AEEA = NCCOCCOCC(=O)O; Aib = CC(C)(N)C(=O)O

Tests used:
human GIP receptor = biological target: T1, human GIP receptor (Homo sapiens, UniProt P48546); experiment: In vitro functional potency, CRE luciferase reporter, whole BHK cells (hGIPR); type: cell-based; details: BHK CRE luc2P hGIPR cells
T1 construct: expressed in transfected cells; host or cells: BHK (parent line BHKTS13), clone BHK CRE luc2P hGIPR
T1 sequence (P48546 22-466): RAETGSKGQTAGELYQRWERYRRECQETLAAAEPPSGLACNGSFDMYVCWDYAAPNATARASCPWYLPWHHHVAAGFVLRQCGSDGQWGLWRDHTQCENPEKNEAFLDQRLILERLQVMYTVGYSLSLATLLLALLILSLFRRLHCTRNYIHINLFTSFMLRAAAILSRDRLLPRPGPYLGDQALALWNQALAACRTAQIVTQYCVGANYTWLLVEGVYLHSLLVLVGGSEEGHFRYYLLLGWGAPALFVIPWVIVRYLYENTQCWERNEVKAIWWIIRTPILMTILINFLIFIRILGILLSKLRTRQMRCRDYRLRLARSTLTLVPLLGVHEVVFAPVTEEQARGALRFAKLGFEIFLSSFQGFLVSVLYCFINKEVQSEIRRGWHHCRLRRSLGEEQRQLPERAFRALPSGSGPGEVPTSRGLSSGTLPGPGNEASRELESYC
Method: (§1) The in vitro functional potency is the measure of target receptor activation in a whole cell assay.
(§2) In vitro functional potency was determined by measuring the response of the target receptor in a reporter gene assay in individual cell lines. […] When the respective receptor is activated, it results in the production of cAMP, which in turn results in expression of the luciferase protein. When assay incubation is completed, luciferase substrate (luciferin) is added resulting in the enzymatic conversion of luciferin to oxyluciferin and producing bioluminescence. The luminescence is measured as the readout for the assay.
(§3) The cells lines used in these assays were BHK cells with BHKTS13 as a parent cell line. The cell lines were derived from a clone containing the CRE luciferase element and were established by further transfection with the respective human receptor to obtain the relevant cell line: BHK CRE luc2P hGLP-1R or BHK CRE luc2P hGIPR. The cells were cultured at 37° C. with 5% CO2 in Cell Culture Medium. They were aliquoted and stored in liquid nitrogen. The cells were kept in continuous culture and were seeded out the day before each assay.
(§4) GLP-1R Cell Culture Medium consisted of DMEM medium with 10% FBS, 500 µg/mL G418, and 300 µg/mL hygromycin. GIPR Cell Culture Medium consisted of DMEM medium with 10% FBS, 400 µg/mL G418, and 300 µg/mL hygromycin. Assay Buffer consisted of DMEM w/o phenol red, 10 mM Hepes, 1× Glutamax. 1% ovalbumin, and 0.1% Pluronic F-68 with the addition of HSA at twice the final assay concentration.
(§5) 1) Cells were plated at 5000 cells/well and incubated overnight in the assay plate. 2) Cells were washed once in DPBS. 3) Stocks of the test compounds and reference compounds in concentrations ranging from […] were diluted 1:150 in Assay Buffer. Compounds were then diluted 1:10 in column 1 of a 96 deep well dilution plate and then carried across the row creating a 3.5 fold, 12 point dilution curve. 4) Assay Buffer (50 μl aliquot) with or without HSA was added to each well in the assay plate. 5) A 50 μl aliquot of compound or blank was transferred from the dilution plate to the assay plate containing the Assay Buffer with or without HSA. 6) The assay plate was incubated for 3 h in a 5% CO2 incubator at 37° C. 7) The cells were washed once with DPBS. 8) A 100 μl aliquot of DPBS was added to each well of the assay plate. 9) A 100 μl aliquot of steadylite plus reagent (light sensitive) was added to each well of the assay plate. 10) Each assay plate was covered with aluminum foil to protect it from light and shaken at 250 RPM for 30 min at room temperature. 11) Each assay plate was read in a microtiter plate reader.
(§6) The data from the microtiter plate reader was first regressed in an Excel in order to calculate the x-axis, log scale concentrations based on the individual test compound's stock concentration and the dilutions of the assay. […] The software performs a non-linear regression (log(agonist) vs response). A minimum of two replicates was measured for each sample. The reported values are averages of the replicates.

human GLP-1 receptor = human GLP-1 receptor (Homo sapiens, UniProt P43220); experiment: In vitro functional potency, CRE luciferase reporter, whole BHK cells (hGLP-1R); type: cell-based; parameters: expressed in transfected cells; host or cells: BHK (parent line BHKTS13), clone BHK CRE luc2P hGLP-1R; details: BHK CRE luc2P hGLP-1R cells
Method: as §1, §2, §3, §4, §5, §6

[1] = 0% HSA, read-out: hGIPR, CRE Luc 0% HSA EC50
[2] = hGIPR, CRE Luc 1% HSA EC50, 1% HSA
[3] = 0% HSA, read-out: hGLP-1R, CRE Luc 0% HSA EC50
[4] = hGLP-1R, CRE Luc 1% HSA EC50, 1% HSA

human GLP-1 receptor, sequence (P43220 24-463): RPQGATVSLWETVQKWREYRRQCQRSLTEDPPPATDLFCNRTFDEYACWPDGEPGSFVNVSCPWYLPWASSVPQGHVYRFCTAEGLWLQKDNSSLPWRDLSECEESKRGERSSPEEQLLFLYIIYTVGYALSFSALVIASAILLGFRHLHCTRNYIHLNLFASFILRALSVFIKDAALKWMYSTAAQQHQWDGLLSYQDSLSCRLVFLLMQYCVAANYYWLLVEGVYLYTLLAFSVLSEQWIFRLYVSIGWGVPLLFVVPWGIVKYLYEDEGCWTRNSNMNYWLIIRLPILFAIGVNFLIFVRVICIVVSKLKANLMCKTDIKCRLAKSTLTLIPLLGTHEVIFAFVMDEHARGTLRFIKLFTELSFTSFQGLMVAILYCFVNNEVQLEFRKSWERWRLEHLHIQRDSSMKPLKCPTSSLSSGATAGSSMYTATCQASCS

| Compound | pEC50 (human GIP receptor; [1]) | pEC50 (human GIP receptor; [2]) | pEC50 (human GLP-1 receptor; [3]) | pEC50 (human GLP-1 receptor; [4]) |
| --- | --- | --- | --- | --- |
| CC[C@H](C)[C@H](NC(=O)[C@H](Cc1ccccc1)NC(=O)[C@H](CCC(=O)O)NC(=O)[C@H](CCCNC(=N)N)NC(=O)[C@H](C)NC(=O)[C@H](C)NC(=O)[C@H](CCC(N)=O)NC(=O)[C@H](CCCCNC(=O)[C@@H](N)CCCCNC(=O)[C@@H](N)CCCCNC(=O)CC[C@H](NC(=O)CCCCCCCCCCCCCCCCC(=O)O)C(=O)O)NC(=O)[C@H](CCC(=O)O)NC(=O)[C@H](CC(C)C)NC(=O)[C@H](CC(C)C)NC(=O)[C@@H](NC(=O)[C@H](CO)NC(=O)[C@H](Cc1ccc(O)cc1)NC(=O)[C@H](CC(=O)O)NC(=O)[C@H](CO)NC(=O)[C@@H](NC(=O)[C@H](Cc1ccccc1)NC(=O)[C@@H](NC(=O)CNC(=O)[C@H](CCC(=O)O)NC(=O)C(C)(C)NC(=O)[C@@H](N)Cc1ccc(O)cc1)[C@@H](C)O)[C@@H](C)O)[C@@H](C)CC)C(=O)N[C@@H](CCC(=O)O)C(=O)N[C@@H](Cc1c[nH]c2ccccc12)C(=O)N[C@@H](CC(C)C)C(=O)N[C@@H](CC(C)C)C(=O)N[C@@H](CCCNC(=N)N)C(=O)NCC(=O)NCC(=O)N1CCC[C@H]1C(=O)N[C@@H](CO)C(=O)N[C@@H](CO)C(=O)NCC(=O)N[C@@H](C)C(=O)N1CCC[C@H]1C(=O)N1CCC[C@H]1C(=O)N1CCC[C@H]1C(=O)N[C@@H](CO)C(=O)O [Compound 27] (H-Y[Aib]EGTFTSDYSILLEK([εLys-εLys-γGlu-C18 diacid])QAAREFIEWLLRGGPSSGAPPPS-OH) | 11.20 | 9.88 | 11.34 | 9.90 |
| CC[C@H](C)[C@H](NC(=O)[C@H](Cc1ccccc1)NC(=O)[C@H](CCC(=O)O)NC(=O)[C@H](CCCNC(=N)N)NC(=O)[C@H](C)NC(=O)[C@H](C)NC(=O)[C@H](CCC(N)=O)NC(=O)[C@H](CCCCNC(=O)[C@@H](N)CCCCNC(=O)[C@@H](N)CCCCNC(=O)CC[C@H](NC(=O)CCCCCCCCCCCCCCCCC(=O)O)C(=O)O)NC(=O)[C@H](CCC(=O)O)NC(=O)[C@H](CC(C)C)NC(=O)[C@H](CC(C)C)NC(=O)[C@@H](NC(=O)[C@H](CO)NC(=O)[C@H](Cc1ccc(O)cc1)NC(=O)[C@H](CC(=O)O)NC(=O)[C@H](CO)NC(=O)[C@@H](NC(=O)[C@@H](NC(=O)[C@@H](NC(=O)CNC(=O)[C@H](CCC(=O)O)NC(=O)C(C)(C)NC(=O)[C@@H](N)Cc1ccc(O)cc1)[C@@H](C)O)C(C)C)[C@@H](C)O)[C@@H](C)CC)C(=O)N[C@@H](CC(N)=O)C(=O)N[C@@H](Cc1c[nH]c2ccccc12)C(=O)N[C@@H](CC(C)C)C(=O)N[C@@H](CC(C)C)C(=O)N[C@@H](C)C(=O)NCC(=O)NCC(=O)N1CCC[C@H]1C(=O)N[C@@H](CO)C(=O)N[C@@H](CO)C(=O)NCC(=O)N[C@@H](C)C(=O)N1CCC[C@H]1C(=O)N1CCC[C@H]1C(=O)N1CCC[C@H]1C(=O)N[C@@H](CO)C(=O)O [Compound 33] (H-Y[Aib]EGTVTSDYSILLEK([εLys-εLys-γGlu-C18 diacid])QAAREFINWLLAGGPSSGAPPPS-OH) | 11.54 | 9.99 | 10.83 | 9.44 |
| CC[C@H](C)[C@H](NC(=O)[C@H](Cc1ccccc1)NC(=O)[C@H](CCC(=O)O)NC(=O)[C@H](CCCNC(=N)N)NC(=O)[C@H](C)NC(=O)[C@H](C)NC(=O)[C@H](CCC(N)=O)NC(=O)[C@H](CCCCNC(=O)[C@@H](N)CCCCNC(=O)[C@@H](N)CCCCNC(=O)CC[C@H](NC(=O)CCCCCCCCCCCCCCCCC(=O)O)C(=O)O)NC(=O)[C@H](CCC(=O)O)NC(=O)[C@H](CC(C)C)NC(=O)[C@@H](NC(=O)[C@@H](NC(=O)[C@H](CO)NC(=O)[C@H](Cc1ccc(O)cc1)NC(=O)[C@H](CC(=O)O)NC(=O)[C@H](CO)NC(=O)[C@@H](NC(=O)[C@H](Cc1ccccc1)NC(=O)[C@@H](NC(=O)CNC(=O)[C@H](CCC(=O)O)NC(=O)C(C)(C)NC(=O)[C@@H](N)Cc1ccc(O)cc1)[C@@H](C)O)[C@@H](C)O)[C@@H](C)CC)[C@@H](C)CC)C(=O)N[C@@H](CC(N)=O)C(=O)N[C@@H](Cc1c[nH]c2ccccc12)C(=O)N[C@@H](CC(C)C)C(=O)N[C@@H](CC(C)C)C(=O)N[C@@H](C)C(=O)NCC(=O)NCC(=O)N1CCC[C@H]1C(=O)N[C@@H](CO)C(=O)N[C@@H](CO)C(=O)NCC(=O)N[C@@H](C)C(=O)N1CCC[C@H]1C(=O)N1CCC[C@H]1C(=O)N1CCC[C@H]1C(=O)N[C@@H](CO)C(=O)O [Compound 34] (H-Y[Aib]EGTFTSDYSIILEK([εLys-εLys-γGlu-C18 diacid])QAAREFINWLLAGGPSSGAPPPS-OH) | 11.08 | 9.67 | 11.22 | 9.73 |
| CC[C@H](C)[C@H](NC(=O)[C@H](Cc1ccccc1)NC(=O)[C@H](CCC(=O)O)NC(=O)[C@H](CCCNC(=N)N)NC(=O)[C@H](C)NC(=O)[C@H](C)NC(=O)[C@H](CCC(N)=O)NC(=O)[C@H](CCCCNC(=O)COCCOCCNC(=O)COCCOCCNC(=O)CC[C@H](NC(=O)CCCCCCCCCCCCCCCCC(=O)O)C(=O)O)NC(=O)[C@H](CCC(=O)O)NC(=O)[C@H](CC(C)C)NC(=O)[C@H](CC(C)C)NC(=O)[C@@H](NC(=O)[C@H](CO)NC(=O)[C@H](Cc1ccc(O)cc1)NC(=O)[C@H](CC(=O)O)NC(=O)[C@H](CO)NC(=O)[C@@H](NC(=O)[C@H](Cc1ccccc1)NC(=O)[C@@H](NC(=O)CNC(=O)[C@H](CCC(=O)O)NC(=O)C(C)(C)NC(=O)[C@@H](N)Cc1ccc(O)cc1)[C@@H](C)O)[C@@H](C)O)[C@@H](C)CC)C(=O)N[C@@H](CC(N)=O)C(=O)N[C@@H](Cc1c[nH]c2ccccc12)C(=O)N[C@@H](CC(C)C)C(=O)N[C@@H](CC(C)C)C(=O)N[C@@H](C)C(=O)NCC(=O)NCC(=O)N1CCC[C@H]1C(=O)N[C@@H](CO)C(=O)N[C@@H](CO)C(=O)NCC(=O)N[C@@H](C)C(=O)N1CCC[C@H]1C(=O)N1CCC[C@H]1C(=O)N1CCC[C@H]1C(=O)N[C@@H](CO)C(=O)O [Compound 35] (H-Y[Aib]EGTFTSDYSILLEK([AEEA-AEEA-γGlu-C18 diacid])QAAREFINWLLAGGPSSGAPPPS-OH) | 11.28 | 9.52 | 11.52 | 9.38 |
